Reference: PubChem BioAssay (NCI)
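Results reflect a 48-hour exposure of cells in 96-well plates to compound at five concentrations. The concentration for 50% growth inhibition is given as GI50. TGI is the concentration that stops growth completely.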

Columns and labels:
Test in all cases: NCI-60 cell line screen, 48 h
[1] = tested on: HCT-116 colon
[2] = tested on: HOP-62 NSCLC
[3] = tested on: KM12 colon
[4] = tested on: LOX IMVI melanoma
[5] = tested on: M14 melanoma
[6] = tested on: MOLT-4 leukemia
[7] = tested on: PC-3 prostate
[8] = tested on: SF-268 CNS
[9] = tested on: SW-620 colon
[10] = tested on: UACC-62 melanoma

Structure (SMILES) | TGI [1] | TGI [2] | TGI [3] | TGI [4] | TGI [5] | TGI [6] | TGI [7] | TGI [8] | TGI [9] | TGI [10] | GI50 [1] | GI50 [2] | GI50 [3] | GI50 [4] | GI50 [5] | GI50 [6] | GI50 [7] | GI50 [8] | GI50 [9] | GI50 [10]
CC(C)OC(=O)NNc1cc(Cl)ccc1Cl | > 100 µM | > 100 µM | > 100 µM | > 100 µM | > 100 µM | > 100 µM | > 100 µM | > 100 µM | > 100 µM | > 100 µM |  |  |  |  |  |  |  |  |  | 
COc1ccc2[nH]c3c4c(ccc3c2c1)C(=O)C=CC4=O | 13.9 µM | > 94.4 µM | 49.1 µM | 24.1 µM | 35.2 µM | 3.1 µM | 33.8 µM | 36.1 µM | 6.63 µM | 36 µM |  |  |  |  |  |  |  |  |  | 
O=C(Nc1ccc(Br)cc1)c1ccc(Cl)c(Cl)c1 | 8.07 µM | > 52.3 µM | > 100 µM | 7.67 µM | > 100 µM | > 100 µM | > 30.8 µM | > 100 µM | > 100 µM | > 100 µM | 2.72 µM | 3.86 µM | 3.16 µM | 2.56 µM | 3.76 µM | 3.17 µM | 2.47 µM | 4.51 µM | 3.59 µM | 2.92 µM
Cc1cn2c(/C=C3\C(=O)N(C)c4ccc(O)cc43)c(C)nc2s1 | > 100 µM | > 100 µM | > 100 µM | > 100 µM | 25.1 µM | 34.7 µM | > 100 µM | > 100 µM | > 100 µM | > 100 µM | 4.04 µM | 18.2 µM | 2.38 µM | 7.51 µM | 3.43 µM | 4.71 µM | 7.46 µM | 9.08 µM | 3.67 µM | 7.61 µM
O=C(Nc1ccc(CO)cc1)c1coc2ccccc2c1=O | > 100 µM | > 100 µM | > 100 µM | > 100 µM | > 100 µM | > 100 µM | > 100 µM | > 100 µM | > 100 µM | > 100 µM | > 100 µM | > 100 µM | > 100 µM | > 100 µM | > 100 µM | > 100 µM | > 100 µM | > 100 µM | > 100 µM | > 100 µM
NC(N)=NCCCCCNc1noc(Cc2c[nH]c3cc(Br)ccc23)n1 | 37 µM | 28.4 µM | 15.9 µM | 45.2 µM | 44.3 µM | 36.3 µM | 79.6 µM | 27.8 µM | > 100 µM | 28.1 µM | 9.78 µM | 5.84 µM | 3.95 µM | 10.6 µM | 10.8 µM | 8.12 µM | 2.57 µM | 3.54 µM | 20 µM | 7.48 µM
COc1ccc2ncn(-c3cc(O[C@H](C)c4ccccc4Cl)c(C(N)=O)s3)c2c1 | 3.64 µM | > 25 µM | 5.23 µM | 4.83 µM | > 25 µM | > 10.5 µM | > 25 µM | > 25 µM | 3.69 µM | 3.99 µM | 0.021 µM | 0.0192 µM | 0.00907 µM | 0.028 µM | 0.0164 µM | 0.0122 µM | 0.0733 µM | 0.0316 µM | 0.00926 µM | 0.0213 µM
Cc1c(C2=C(Br)C(=O)N(C)C2=O)c(=O)n(C)c(=O)n1C | 40.9 µM | > 100 µM | > 100 µM | 32.3 µM | > 100 µM | 55.1 µM | 49.6 µM | > 100 µM | > 100 µM | 97.9 µM |  |  |  |  |  |  |  |  |  | 
C[C@]12CC[C@@H]3c4ccc(O)cc4CC[C@H]3[C@@H]1CC[C@@H]2NS(=O)(=O)c1cccc(F)c1 | 7.33 µM | 21.9 µM | 6.31 µM | 10.8 µM | 11.9 µM | 9.59 µM | 14 µM | 16 µM | 16.8 µM | 11.3 µM | 2.63 µM | 7.38 µM | 2.34 µM | 3.09 µM | 3.41 µM | 2.5 µM | 2.96 µM | 4.1 µM | 4.36 µM | 2.92 µM
O=C(Nc1ccc(-c2ccccc2)cc1)C1CCN(S(=O)(=O)c2ccccc2Cl)CC1 | > 100 µM | 40.9 µM | > 100 µM | > 100 µM | > 100 µM | > 100 µM | > 100 µM | > 100 µM | > 100 µM | > 100 µM | 39.4 µM | 18.8 µM | 36.7 µM | 27.7 µM | 64.1 µM | > 100 µM | 38 µM | 39 µM | 82.3 µM | 39.8 µM
